pIC50: −log10 of the molar value.

Data on 19 compounds can be found in ChEMBL document CHEMBL4334443, “Characterization of Covalent Pyrazolopyrimidine-MKK7 Complexes and a Report on a Unique DFG-in/Leu-in Conformation of Mitogen-Activated Protein Kinase Kinase 7 (MKK7)” (J Med Chem, 2019).

The assay is described as follows: Inhibition of MKK7 beta1 S273D/T275D double mutant (unknown origin) using JNK1 K55M mutant as substrate by ADP-Glo assay. More on the design: species or system Homo sapiens. For orientation: ADP-Glo first removes unused ATP, then detects ADP through luciferase.
For the compound `C=CC(=O)N1CCC[C@@H](n2nc(-c3ccc(F)cc3)c3c(N)ncnc32)C1`, the negative logarithm of the IC50 (pIC50) – broadly, the negative decadic logarithm of the IC50, by convention in mol/L – is 6.81. To `CN(C)C/C=C/C(=O)N1CCC[C@@H](n2nc(-c3cccc(C(F)(F)F)c3)c3c(N)ncnc32)C1` belongs 5.58; to `C=CC(=O)N1CCC[C@@H](n2nc(C#CC3CCCC3)c3c(N)ncnc32)C1`, 5.80; to `N#C/C(=C\C1CC1)C(=O)N1CCC[C@@H](n2nc(-c3cccc(C(F)(F)F)c3)c3c(N)ncnc32)C1`, under 5.00. In the case of `C=CC(=O)N1CCC[C@@H](n2nc(-c3cccc4ccccc34)c3c(N)ncnc32)C1`, the pIC50 is 6.83.

With `C=CC(=O)N1CCC[C@@H](n2nc(-c3cnc4[nH]ccc4c3)c3c(N)ncnc32)C1`, the negative logarithm of the IC50 (pIC50) was 7.72.

`C=CC(=O)N1CCC[C@@H](n2nc(-c3ccc(Oc4ccccc4)cc3)c3c(N)ncnc32)C1` [IBRUTINIB]: the negative logarithm of the IC50 (pIC50) is 7.11.

As for `CCC(=O)N1CCC[C@@H](n2nc(-c3cccc(C(F)(F)F)c3)c3c(N)ncnc32)C1`, the pIC50 was under 5.00. In turn, `C=CC(=O)N1CCC[C@@H](n2nc(C3CC3)c3c(N)ncnc32)C1` showed a negative-log IC50 (pIC50) of 6.51. To `C=CC(=O)N1CCC[C@@H](n2nc(-c3cccc(C(F)(F)F)c3)c3c(N)ncnc32)C1` belongs 6.80; to `C=CC(=O)N1CCC[C@@H](n2nc(-c3ccc4ccccc4c3)c3c(N)ncnc32)C1`, 6.95. On to `C=CC(=O)N1CCC[C@@H](n2ncc3c(N)ncnc32)C1`, for which the negative logarithm of the IC50 (pIC50) is 6.20. Against the preceding compound, the pIC50 is 0.75 log units lower. The compound `C=CC(=O)N1CCC[C@@H](n2nc(-c3cn(C)c4ccccc34)c3c(N)ncnc32)C1` showed a negative-log IC50 (pIC50) of 6.52.

`N#C/C(=C\C1CC1)C(=O)N1CCC[C@@H](n2nc(-c3cnc4[nH]ccc4c3)c3c(N)ncnc32)C1` had a pIC50 of under 5.00.

Compound `C=CC(=O)N1CCC[C@@H](n2nc(-c3ccc(O)cc3)c3c(N)ncnc32)C1` showed a pIC50 of 8.07.

As for `C=CC(=O)N1CCC[C@@H](n2nc(-c3ccc(C(F)(F)F)cc3)c3c(N)ncnc32)C1`, the negative-log IC50 (pIC50) was 6.18. This pIC50 is 1.89 log units lower than that of the compound before. Take `CCC(=O)N1CCC[C@@H](n2nc(-c3ccccc3)c3c(N)ncnc32)C1`: the negative-log IC50 (pIC50) is under 5.00. To `C=CC(=O)N1CCC[C@@H](n2nc(-c3ccccc3)c3c(N)ncnc32)C1` belongs 6.38.

`CCC(=O)N1CCC[C@@H](n2nc(-c3ccc(F)cc3)c3c(N)ncnc32)C1` gave a negative-log IC50 (pIC50) of under 5.00.
